Experimental data published in article PMC10180211, “Stability Analysis of the Asiatic Acid-COX-2 Complex Using 100 ns Molecular Dynamic Simulations and Its Selectivity against COX-2 as a Potential Anti-Inflammatory Candidate” (Molecules, 2023).
pIC50: −log10 of the molar value.

Molecular target: T1, cyclooxygenase-2 (COX-2) (Ovis aries, UniProt P79208)
T1 construct: gene PTGS2
T1 sequence (P79208 17-603): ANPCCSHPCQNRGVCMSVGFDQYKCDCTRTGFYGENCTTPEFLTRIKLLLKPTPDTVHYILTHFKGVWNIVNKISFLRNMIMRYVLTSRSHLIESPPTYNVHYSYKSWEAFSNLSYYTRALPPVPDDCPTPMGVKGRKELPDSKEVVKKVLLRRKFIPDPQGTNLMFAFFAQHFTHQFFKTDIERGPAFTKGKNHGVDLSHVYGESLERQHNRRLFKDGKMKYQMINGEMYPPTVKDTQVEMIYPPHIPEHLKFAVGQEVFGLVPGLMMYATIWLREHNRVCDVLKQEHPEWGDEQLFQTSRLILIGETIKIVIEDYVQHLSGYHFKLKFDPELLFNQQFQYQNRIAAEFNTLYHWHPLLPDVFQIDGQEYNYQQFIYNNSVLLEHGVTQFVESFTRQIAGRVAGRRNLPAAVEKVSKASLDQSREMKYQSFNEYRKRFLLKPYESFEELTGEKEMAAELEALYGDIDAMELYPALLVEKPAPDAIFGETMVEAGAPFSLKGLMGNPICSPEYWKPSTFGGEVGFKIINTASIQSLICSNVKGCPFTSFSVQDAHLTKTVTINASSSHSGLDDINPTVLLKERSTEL
Assay: colorimetric COX inhibitor screening assay (kit […]; TMPD oxidation at […] nm) with ovine COX-2
Format: biochemical

C[C@H]1[C@H](C)CC[C@]2(C(=O)O)CC[C@]3(C)C(=CC[C@@H]4[C@@]5(C)C[C@@H](O)[C@H](O)[C@@](C)(CO)[C@@H]5CC[C@]43C)[C@H]12 [asiatic acid, 2,3,23-trihydroxy-urs-12-ene-28-oic-acid]
pIC50: 3.92
